Laboratory results as given in ChEMBL document CHEMBL1146918, “Synthesis and anti-angiogenesis activity of coumarin derivatives” (Bioorg Med Chem Lett, 2006).

Key:
[1] = system: U-87 MG; assay: Antiproliferative activity against human U87 MG cell line; assay type: functional, cell-based, U-87MG ATCC
[2] = system: B16; assay: Antiproliferative activity against mouse B16 cell line; assay type: functional, cell-based
[3] = system: HeLa; assay: Antiproliferative activity against human HeLa cell line; assay type: functional, cell-based
[4] = system: DLD-1; assay: Antiproliferative activity against human DLD1 cell line; assay type: functional, cell-based
[5] = system: SiHa; assay: Antiproliferative activity against human SiHa cell line; assay type: functional, cell-based
[6] = system: NIH3T3; assay: Antiproliferative activity against mouse NIH3T3 cell line; assay type: functional, cell-based
[7] = system: HUVEC; assay: Antiproliferative activity against HUVEC cell line; assay type: functional, cell-based; conditions: Homo sapiens

SMILES | IC50 [1] | IC50 [2] | IC50 [3] | IC50 ([4]; read-out: IC50) | IC50 [5] | IC50 [6] | IC50 [7] | IC50 [4]
CCN(CC)c1ccc2cc(-c3nc4ccccc4s3)c(=O)oc2c1 | > 70 µM | > 70 µM | > 70 µM | > 70 µM | > 70 µM | > 70 µM | > 70 µM | –
O=Cc1cc2c3c(c1O)CCCN3CCC2 | > 70 µM | > 70 µM | > 70 µM | > 70 µM | > 70 µM | > 70 µM | 35.4 µM | –
O=c1oc2c3c4c(cc2cc1-c1nc2ccccc2[nH]1)CCCN4CCC3 | 33.4 µM | 8.9 µM | 11.6 µM | 35.2 µM | 14.6 µM | 41.4 µM | 3.3 µM | –
CCN(CC)c1ccc2c(C#N)c(-c3nc4ccccc4s3)c(=O)oc2c1 | > 70 µM | > 70 µM | > 70 µM | > 70 µM | > 70 µM | > 70 µM | 4.8 µM | –
O=c1oc2c3c4c(cc2cc1[N+](=O)[O-])CCCN4CCC3 | > 70 µM | > 70 µM | > 70 µM | > 70 µM | > 70 µM | > 70 µM | > 70 µM | –
CCN(CC)c1ccc2cc(-c3nc4ccccc4[nH]3)c(=O)oc2c1 | 15 µM | 12.6 µM | > 70 µM | > 70 µM | 62.1 µM | 9.3 µM | 9.6 µM | –
CCN(CC)c1ccc2cc(C(C)=O)c(=O)oc2c1 | > 70 µM | > 70 µM | > 70 µM | > 70 µM | > 70 µM | > 70 µM | > 70 µM | –
CC(=O)O[C@H]1C(=O)[C@@]2(C)[C@H]([C@H](OC(=O)c3ccccc3)[C@]3(O)C[C@H](OC(=O)[C@H](O)[C@@H](NC(=O)c4ccccc4)c4ccccc4)C(C)=C1C3(C)C)[C@]1(OC(C)=O)CO[C@@H]1C[C@@H]2O [PACLITAXEL] | 0.08 µM | 0.08 µM | 0.47 µM | – | 3.5 µM | 1.29 µM | 0.06 µM | 0.09 µM
